Reference: patent US8668921B2, “Lipase inhibitors” (Suntory Holdings Limited, priority 2004, dated 2014)

Target: T1, porcine pancreatic lipase (Sus scrofa, UniProt P00591)
T1 construct: purchased Sigma
T1 sequence (P00591 1-450): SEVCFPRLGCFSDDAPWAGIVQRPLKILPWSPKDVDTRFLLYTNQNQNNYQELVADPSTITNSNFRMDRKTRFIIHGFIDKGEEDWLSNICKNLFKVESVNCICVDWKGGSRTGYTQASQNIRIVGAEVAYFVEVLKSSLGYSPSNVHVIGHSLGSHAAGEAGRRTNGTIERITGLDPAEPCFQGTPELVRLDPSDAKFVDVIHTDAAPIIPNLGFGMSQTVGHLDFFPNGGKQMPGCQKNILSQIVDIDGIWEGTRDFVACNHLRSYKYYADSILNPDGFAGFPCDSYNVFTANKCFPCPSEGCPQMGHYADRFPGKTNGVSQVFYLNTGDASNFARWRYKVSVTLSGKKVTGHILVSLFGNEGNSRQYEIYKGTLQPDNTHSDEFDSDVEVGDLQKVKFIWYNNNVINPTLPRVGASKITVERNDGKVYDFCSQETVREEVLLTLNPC
Experiment: Lipase inhibitory activity assay (4-MUO fluorescent substrate)
Format: biochemical
Settings: method of Example 1
Protocol: A lipase activity assay was performed by using the oleate ester of fluorescent 4-methylumbelliferone (4-MUO) as a substrate to measure the fluorescence of 4-methylumbelliferone produced by reaction.
The buffer used for the assay was 13 mM Tris-HCl (pH 8.0) containing 150 mM NaCl, 1.36 mM CaCl2. The enzyme assay was performed using a 0.1 M solution of the substrate 4-MUO (Sigma) in DMSO diluted 1:1000 in said buffer and a solution of porcine pancreatic lipase (Sigma) prepared at 400 U/ml also in said buffer.
An enzymatic reaction was started by adding 25 μl of the lipase/buffer solution after 50 μl of the 4-MUO/buffer solution and 25 μl of distilled water (or an aqueous solution of each sample) were added and mixed in a 96-well microplate at 25° C. After the reaction was performed for 30 minutes, the reaction was stopped by adding 100 μl of a 0.1 M citrate buffer (pH 4.2) and the fluorescence of 4-methylumbelliferone produced by the reaction (excitation 355 nm, emission 460 nm) was measured using a fluorescence plate reader (Fluoroskan Asent CF from Labsystems).
The inhibitory activity of each test sample was determined as IC50(μM), i.e. the amount of the sample giving 50% inhibition of the activity of the control (distilled water).
With “(−)-epigallocatechin 3-O-gallate [(−)-epigallocatechin 3-O-gallate (4)]” the “lipase inhibitory activity (in words)” value was “strongest activity among the major catechins”.

Same assay, conditions: porcine pancreatic lipase, 4-MUO substrate, 25° C., 30 minutes, pH 8.0
`Oc1cc(O)c2c(c1)OC(c1ccc(O)c(O)c1)C(O)C2` (single isomer, unassigned; (+)) [(+)-catechin (5), (+)-catechin] showed an IC50 greater than 690000 nM.
Work on `Oc1cc(O)c2c(c1)O[C@H](c1cc(O)c(O)c(O)c1)[C@@H](O)C2` [(+)-gallocatechin (7), (+)-gallocatechin] yielded an IC50 greater than 163000 nM.
For `O=C(O[C@@H]1Cc2c(O)cc(O)cc2O[C@@H]1c1ccc(O)c(O)c1)c1cc(O)c(O)c(O)c1` [(−)-epicatechin 3-O-gallate (2), (−)-epicatechin 3-O-gallate], the IC50 was 271 nM.
`Oc1cc(O)c2c(c1)O[C@H](c1ccc(O)c(O)c1)[C@H](O)C2` [(−)-epicatechin (1), (−)-epicatechin] showed an IC50 greater than 21600 nM.
`Oc1cc(O)c2c(c1)O[C@H](c1cc(O)c(O)c(O)c1)[C@H](O)C2` [(−)-epigallocatechin (3), (−)-epigallocatechin] showed an IC50 greater than 20400 nM.
Compound `O=C(O[C@@H]1Cc2c(O)cc(O)cc2O[C@H]1c1cc(O)c(O)c(O)c1)c1cc(O)c(O)c(O)c1` [(−)-gallocatechin 3-O-gallate (8), (−)-gallocatechin 3-O-gallate] has an IC50 of 349 nM.
`O=C(OC1Cc2c(O)cc(O)c(C(c3cc(O)c(O)c(O)c3)C(Cc3c(O)cc(O)cc3O)OC(=O)c3cc(O)c(O)c(O)c3)c2OC1c1cc(O)c(O)c(O)c1)c1cc(O)c(O)c(O)c1` (stereo not drawn) [assamicain A (9), assamicain A] gave an IC50 of 120 nM.
Work on `O=C(OC1Cc2c(O)cc(O)c(C(c3cc(O)c(O)c(O)c3)C(Cc3c(O)cc(O)cc3O)OC(=O)c3cc(O)c(O)c(O)c3)c2OC1c1cc(O)c(O)c(O)c1)c1cc(O)c(O)c(O)c1` (stereo not drawn) [assamicain B (10), assamicain B] yielded an IC50 of 186 nM.
Work on `O=C1C=C2c3c(cc(O)c4c3O[C@H](c3ccc(O)c(O)c3)[C@@H](O)C4)OC23C[C@]1(O)O[C@H]1Cc2c(O)cc(O)cc2O[C@@H]13` [dehydro-dicatechin A (14), dehydro-dicatechin A] yielded an IC50 of 3090 nM.
Work on `O=C(O[C@@H]1Cc2c(O)cc(O)cc2O[C@@H]1c1cc(O)c(O)c2c(=O)c(O)cc([C@H]3Oc4cc(O)cc(O)c4C[C@H]3O)cc12)c1cc(O)c(O)c(O)c1` [theaflavin 3′-O-gallate (16), theaflavin 3′-O-gallate] yielded an IC50 of 112 nM.
With `O=c1c(O)cc([C@H]2Oc3cc(O)cc(O)c3C[C@H]2O)cc2c([C@H]3Oc4cc(O)cc(O)c4C[C@H]3O)cc(O)c(O)c12` [theaflavin (15), theaflavin] the IC50 was 106 nM.
With `O=C(O[C@@H]1Cc2c(O)cc(O)cc2O[C@@H]1c1cc(O)c(O)c(O)c1-c1c([C@H]2Oc3cc(O)cc(O)c3C[C@H]2OC(=O)c2cc(O)c(O)c(O)c2)cc(O)c(O)c1O)c1cc(O)c(O)c(O)c1` [theasinensin A (11), theasinensin A] the IC50 was 142 nM.
For `O=C(O[C@@H]1Cc2c(O)cc(O)cc2O[C@@H]1c1cc(O)c(O)c(O)c1-c1c([C@H]2Oc3cc(O)cc(O)c3C[C@H]2O)cc(O)c(O)c1O)c1cc(O)c(O)c(O)c1` [theasinensin B (12), theasinensin B], the IC50 was 276 nM.
For `O=C(O[C@@H]1Cc2c(O)cc(O)cc2O[C@@H]1c1cc(O)c(O)c(O)c1-c1c([C@H]2Oc3cc(O)cc(O)c3C[C@H]2OC(=O)c2cc(O)c(O)c(O)c2)cc(O)c(O)c1O)c1cc(O)c(O)c(O)c1` [theasinensin D (13), theasinensin D], the IC50 was 98 nM.
For “(−)-epigallocatechin 3-O-gallate [(−)-epigallocatechin 3-O-gallate (4)]”, the IC50 was 284 nM.

Tested on: not given
Experiment: not given
Settings: reported in the literature; cited from earlier work
For `OC1(c2ccc(Cl)cc2)c2ccccc2C2=NCCN21` (stereo not drawn) [Mazindol], the adverse side effects is given as “dry mouth, constipation, stomach discomfort and nausea/vomiting”.
For `CCCCCCCCCCC[C@@H](C[C@@H]1OC(=O)[C@H]1CCCCCC)OC(=O)[C@H](CC(C)C)NC=O` [Xenical], the adverse side effects is given as “fatty stools, increased stool frequency, loose stools, diarrhea and abdominal pain”.
